For assay [1], the target named is T1, rhesus H3 receptor (Macaca mulatta, UniProt Q865E1). The experiment in a line: Rhesus H3 [3H]-methylhistamine radioligand binding assay. Also noted: species or system rhesus monkey (Macacca Mulatta). The settings on record: [3H]-Methylhistamine 2 nM, rhesus H3 membranes, WGA SPA beads, Cheng-Prusoff. An outline of the steps: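 Membranes from tetracycline-induced (500 ng/ml, 24 h) Flp-In T-REx 293 cells expressing 445-aa rhesus H3 receptor, 20-30 μg protein per reaction. WGA SPA format with 2 nM [3H]-methylhistamine, 1 hour at 25° C; Ki obtained via Hill transformation and Cheng-Prusoff equation.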

For assay [2], the target named is T1, rhesus H3 receptor. The experiment in a line: GTPγS radioligand binding assay, inhibition of rhesus H3 constitutive functional activity (inverse agonism). Also noted: concentration or dose not given beside the values. To be noted: rhesus H3 cell membranes, relative to basal levels. Format: biochemical, rhesus monkey (Macacca Mulatta). An outline of the steps:
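Membranes from tetracycline-induced (500 ng/ml, 24 h) Flp-In T-REx 293 cells stably expressing the 445-aa rhesus H3 receptor, resuspended in 5 mM HEPES pH 7.4 at 10 mg/ml protein. Inverse agonism measured as inhibition of constitutive GTPγS binding.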

As a reminder, the Ki is the dissociation constant of the complex between target and ligand, obtained from inhibition or displacement.

T1 sequence (Q865E1 1-445): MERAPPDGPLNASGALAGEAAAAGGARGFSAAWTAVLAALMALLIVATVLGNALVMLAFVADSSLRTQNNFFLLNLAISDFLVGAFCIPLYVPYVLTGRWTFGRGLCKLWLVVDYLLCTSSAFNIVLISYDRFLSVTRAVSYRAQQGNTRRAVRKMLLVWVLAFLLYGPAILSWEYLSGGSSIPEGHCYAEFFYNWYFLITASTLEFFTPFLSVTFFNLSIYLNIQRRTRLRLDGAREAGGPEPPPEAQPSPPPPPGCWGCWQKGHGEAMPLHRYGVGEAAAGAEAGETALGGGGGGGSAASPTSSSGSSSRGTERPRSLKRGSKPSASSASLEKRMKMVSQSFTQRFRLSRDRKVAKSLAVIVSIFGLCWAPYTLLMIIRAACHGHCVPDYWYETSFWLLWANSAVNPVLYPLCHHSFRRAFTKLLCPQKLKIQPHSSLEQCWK

With `COc1ccc(S(=O)(=O)N2CCC3(CCN(c4ccc(N5CC[C@H](N6CCC[C@@H]6C)C5)cc4C(F)(F)F)C3=O)CC2)cc1` [Example 65, 8-(4-Methoxy-benzenesulfonyl)-2-[4-((2S,3′S)-2-methyl-[1,3′]bipyrrolidinyl-1′-yl)-2-trifluoromethyl-phenyl]-2,8-diaza-spiro[4.5]decan-1-one], the affinity in assay [1], expressed as Ki, was 10.6 nM. Also, the “Inverse Agonism: % inhibition of Basal GTPγS binding in Rhesus H3” value (“Inverse Agonism: % inhibition” below) in assay [2] is recorded as −18%.

In the case of `C[C@H]1CCCN1[C@H]1CCN(c2ccc(N3CCC4(CCN(Cc5ccco5)CC4)C3=O)c(C(F)(F)F)c2)C1` [Example 66, 8-Furan-2-ylmethyl-2-[4-((2S,3′S)-2-methyl-[1,3′]bipyrrolidinyl-1′-yl)-2-trifluoromethyl-phenyl]-2,8-diaza-spiro[4.5]decan-1-one], the Ki in assay [1] amounted to 5.5 nM. In addition, the “Inverse Agonism: % inhibition” value in assay [2] is given as −19%.

The compound `C[C@H]1CCCN1[C@H]1CCN(c2ccc(N3CCC4(CCN(CC5CC5)CC4)C3=O)c(C(F)(F)F)c2)C1` [Example 67, 8-Cyclopropylmethyl-2-[4-((2S,3′S)-2-methyl-[1,3′]bipyrrolidinyl-1′-yl)-2-trifluoromethyl-phenyl]-2,8-diaza-spiro[4.5]decan-1-one] returned a Ki in assay [1] of 1.4 nM. Further, the “Inverse Agonism: % inhibition” value in assay [2] is listed as −12%.

In assay [1], `C[C@H]1CCCN1[C@H]1CCN(c2ccc(N3CCC4(CCN(CC5CCOCC5)CC4)C3=O)c(C(F)(F)F)c2)C1` [Example 68, 2-[4-((2S,3′S)-2-Methyl-[1,3′]bipyrrolidinyl-1′-yl)-2-trifluoromethyl-phenyl]-8-(tetrahydro-pyran-4-ylmethyl)-2,8-diaza-spiro[4.5]decan-1-one] yielded a Ki of 4.2 nM. Further, in assay [2], the “Inverse Agonism: % inhibition” value is on record as −19%.

In turn, `C[C@H]1CCCN1[C@H]1CCN(c2ccc(N3CCC4(CCNCC4)C3=O)c(C(F)(F)F)c2)C1.Cl` [Example 69, 2-[4-((2S,3′S)-2-Methyl-[1,3′]bipyrrolidinyl-1′-yl)-2-trifluoromethyl-phenyl]-2,8-diaza-spiro[4.5]decan-1-one Hydrochloride] gave a Ki in assay [1] of 0.09 nM. For the same compound, in assay [2], the “Inverse Agonism: % inhibition” value was −28%.

The values above are taken from US8604046B2, “Substituted piperidine spiro pyrrolidinone and piperidinone, preparation and therapeutic use thereof” (Sanofi, priority 2008, dated 2013).
